Measurements taken from ChEMBL document CHEMBL1201862, “PubChem BioAssay data set” (2004).
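Following 48 hours of exposure in 96-well plates, responses at five concentrations were used to interpolate endpoints linearly. Here, GI50 denotes the concentration required for 50% inhibition of growth.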 Calls of active or inactive are those of the source. Cut-off read from the data, not from the text of the source: active = GI50 up to about 1.1 µM and inactive = higher.

Experiments:
Test in all cases: DTP human tumour cell line panel, 48 h
UO-31 = test system: UO-31
SK-MEL-5 = test system: SK-MEL-5
EKVX = test system: EKVX
UACC-62 = test system: UACC-62
SK-MEL-28 = test system: SK-MEL-28
MCF7 = test system: MCF7
MDA-N = test system: MDA-N
SN12C = test system: SN12C
IGROV-1 = test system: IGROV-1
A549 = test system: A549
MDA-MB-231 = test system: MDA-MB-231
NCI/ADR-RES = test system: NCI/ADR-RES
MOLT-4 = test system: MOLT-4
786-0 = test system: 786-0
NCI-H460 = test system: NCI-H460
CCRF-CEM = test system: CCRF-CEM
LOX IMVI = test system: LOX IMVI
SNB-19 = test system: SNB-19
CAKI-1 = test system: CAKI-1
HCC 2998 = test system: HCC 2998

Row | SMILES | GI50 (UO-31) | GI50 (SK-MEL-5) | GI50 (EKVX) | GI50 (UACC-62) | GI50 (SK-MEL-28) | GI50 (MCF7) | GI50 (MDA-N) | GI50 (SN12C) | GI50 (IGROV-1) | GI50 (A549) | GI50 (MDA-MB-231) | GI50 (NCI/ADR-RES) | GI50 (MOLT-4) | GI50 (786-0) | GI50 (NCI-H460) | GI50 (CCRF-CEM) | GI50 (LOX IMVI) | GI50 (SNB-19) | GI50 (CAKI-1) | GI50 (HCC 2998)
1 | CC1=C(Br)C(=O)C(C)=C(Br)C1=O.Cc1c(O)c(Br)c(C)c(O)c1Br | 1.85 µM (inactive) | 4.22 µM (inactive) | 1.85 µM (inactive) | 5.55 µM (inactive) | 1.91 µM (inactive) | 1.96 µM (inactive) | 1.81 µM (inactive) | 1.8 µM (inactive) | 7.83 µM (inactive) | 18.3 µM (inactive) | 4.4 µM (inactive) | 4.31 µM (inactive) | 0.783 µM (active) | 1.77 µM (inactive) | 6.71 µM (inactive) | 0.216 µM (active) | 1.87 µM (inactive) | 18.1 µM (inactive) | 2.14 µM (inactive) | –
2 | CCOC(=O)NC(NCC(O)c1ccccc1)(C(F)(F)F)C(F)(F)F (stereo not drawn) | > 100 µM (inactive) | > 100 µM (inactive) | > 100 µM (inactive) | > 100 µM (inactive) | > 100 µM (inactive) | > 100 µM (inactive) | > 100 µM (inactive) | > 100 µM (inactive) | > 100 µM (inactive) | > 100 µM (inactive) | > 100 µM (inactive) | – | > 100 µM (inactive) | – | > 100 µM (inactive) | > 100 µM (inactive) | > 100 µM (inactive) | > 100 µM (inactive) | > 100 µM (inactive) | > 100 µM (inactive)
3 | CN1CN(c2ccccc2)C2(CCN(CCC3COc4ccccc4O3)CC2)C1=O (stereo not drawn) | 13.5 µM (inactive) | 12.9 µM (inactive) | 10.3 µM (inactive) | 27.5 µM (inactive) | 19.6 µM (inactive) | 5.27 µM (inactive) | 19.8 µM (inactive) | 27.7 µM (inactive) | 17.6 µM (inactive) | 33.1 µM (inactive) | 31.9 µM (inactive) | 19.7 µM (inactive) | 17 µM (inactive) | 36.4 µM (inactive) | – | 17.9 µM (inactive) | 23 µM (inactive) | 19.9 µM (inactive) | 28.2 µM (inactive) | 8.07 µM (inactive)
4 | Cc1cc(C)c2cc(N)c(Cl)nc2n1 | 63.4 µM (inactive) | > 100 µM (inactive) | > 100 µM (inactive) | > 100 µM (inactive) | – | > 100 µM (inactive) | > 100 µM (inactive) | > 100 µM (inactive) | > 100 µM (inactive) | > 100 µM (inactive) | > 100 µM (inactive) | > 100 µM (inactive) | – | > 100 µM (inactive) | 96.4 µM (inactive) | > 100 µM (inactive) | – | > 100 µM (inactive) | > 100 µM (inactive) | –
5 | C#CCNC(CSSCC(N)C(=O)O)C(=O)O (stereo not drawn) | > 100 µM (inactive) | > 100 µM (inactive) | > 100 µM (inactive) | > 100 µM (inactive) | > 100 µM (inactive) | > 100 µM (inactive) | > 100 µM (inactive) | – | > 100 µM (inactive) | > 100 µM (inactive) | > 100 µM (inactive) | > 100 µM (inactive) | > 100 µM (inactive) | > 100 µM (inactive) | – | > 100 µM (inactive) | – | > 100 µM (inactive) | > 100 µM (inactive) | > 100 µM (inactive)
6 | Cc1ccc(CSC(=N)Nc2ccccc2)cc1C | – | 16.1 µM (inactive) | 26.4 µM (inactive) | 13.1 µM (inactive) | 24.7 µM (inactive) | 18.7 µM (inactive) | 18.9 µM (inactive) | 18.9 µM (inactive) | 23.2 µM (inactive) | 28.3 µM (inactive) | 16.2 µM (inactive) | 20.4 µM (inactive) | 24.2 µM (inactive) | 19.3 µM (inactive) | 18.6 µM (inactive) | 20.2 µM (inactive) | 18.9 µM (inactive) | 23.7 µM (inactive) | 19.9 µM (inactive) | –
7 | CC(C)CCCC(=O)CCCCCCC(=O)CCN(O)C(=O)C(N)CO (stereo not drawn) | 12.2 µM (inactive) | 17.5 µM (inactive) | 10.6 µM (inactive) | 16.7 µM (inactive) | 19.1 µM (inactive) | 19.8 µM (inactive) | 21.8 µM (inactive) | 16.9 µM (inactive) | 13.5 µM (inactive) | – | 16.2 µM (inactive) | 16.1 µM (inactive) | 41.7 µM (inactive) | 16 µM (inactive) | – | 4.62 µM (inactive) | 12.2 µM (inactive) | 22.5 µM (inactive) | 16 µM (inactive) | –
8 | C[N+](C)(C)c1ncnc2c1ncn2C1CCCCO1 (stereo not drawn) | > 100 µM (inactive) | > 100 µM (inactive) | > 100 µM (inactive) | > 100 µM (inactive) | > 100 µM (inactive) | > 100 µM (inactive) | > 100 µM (inactive) | > 100 µM (inactive) | > 100 µM (inactive) | > 100 µM (inactive) | > 100 µM (inactive) | > 100 µM (inactive) | > 100 µM (inactive) | > 100 µM (inactive) | > 100 µM (inactive) | > 100 µM (inactive) | > 100 µM (inactive) | > 100 µM (inactive) | > 100 µM (inactive) | –
9 | CCOC(=O)/C(=N\OC)C(O)C(F)(F)F (stereo not drawn) | > 100 µM (inactive) | > 100 µM (inactive) | > 100 µM (inactive) | > 100 µM (inactive) | > 100 µM (inactive) | > 100 µM (inactive) | > 100 µM (inactive) | > 100 µM (inactive) | > 100 µM (inactive) | > 100 µM (inactive) | > 100 µM (inactive) | > 100 µM (inactive) | > 100 µM (inactive) | > 100 µM (inactive) | – | > 100 µM (inactive) | > 100 µM (inactive) | > 100 µM (inactive) | > 100 µM (inactive) | > 100 µM (inactive)
10 | CCOC(=O)c1c(SCc2cc(=O)[nH]c(=O)[nH]2)n(-c2ccccc2)c(=S)n(-c2ccccc2)c1=O | > 100 µM (inactive) | > 100 µM (inactive) | > 100 µM (inactive) | > 100 µM (inactive) | > 100 µM (inactive) | > 100 µM (inactive) | > 100 µM (inactive) | > 100 µM (inactive) | > 100 µM (inactive) | > 100 µM (inactive) | > 100 µM (inactive) | > 100 µM (inactive) | > 100 µM (inactive) | > 100 µM (inactive) | > 100 µM (inactive) | > 100 µM (inactive) | – | > 100 µM (inactive) | > 100 µM (inactive) | > 100 µM (inactive)
11 | Cc1ccc(-c2cs/c(=N\c3c(C)n(C)n(-c4ccccc4)c3=O)n2CCO)cc1 | > 100 µM (inactive) | – | 84.7 µM (inactive) | > 100 µM (inactive) | > 100 µM (inactive) | 72.9 µM (inactive) | > 100 µM (inactive) | > 100 µM (inactive) | – | > 100 µM (inactive) | > 100 µM (inactive) | 65.6 µM (inactive) | 87.5 µM (inactive) | – | > 100 µM (inactive) | > 100 µM (inactive) | – | > 100 µM (inactive) | > 100 µM (inactive) | > 100 µM (inactive)
12 | CSC1=N/C(=C\c2ccc(C)cc2)C(=O)N1CN1CCOCC1 | 20.2 µM (inactive) | 55.8 µM (inactive) | 47.4 µM (inactive) | 93.3 µM (inactive) | > 10 µM (inactive) | 31.2 µM (inactive) | > 100 µM (inactive) | > 100 µM (inactive) | 28.2 µM (inactive) | 92.3 µM (inactive) | > 100 µM (inactive) | 19.5 µM (inactive) | 28.9 µM (inactive) | 44.7 µM (inactive) | – | 41.4 µM (inactive) | 39.9 µM (inactive) | 37.5 µM (inactive) | – | –
13 | Cc1cc(=O)nc(S(=O)(=O)NC(=O)Nc2cccc(Cl)c2)[nH]1 | 3.43 µM (inactive) | > 100 µM (inactive) | > 100 µM (inactive) | > 100 µM (inactive) | > 100 µM (inactive) | > 100 µM (inactive) | > 100 µM (inactive) | > 100 µM (inactive) | > 100 µM (inactive) | > 100 µM (inactive) | > 68.9 µM (inactive) | > 100 µM (inactive) | 32.7 µM (inactive) | > 100 µM (inactive) | > 100 µM (inactive) | 64.4 µM (inactive) | > 100 µM (inactive) | > 100 µM (inactive) | – | > 100 µM (inactive)
14 | N#C/C(N)=C(C#N)/N=C/N | 58.6 µM (inactive) | > 100 µM (inactive) | > 100 µM (inactive) | > 100 µM (inactive) | > 100 µM (inactive) | > 100 µM (inactive) | > 100 µM (inactive) | > 100 µM (inactive) | > 100 µM (inactive) | > 100 µM (inactive) | > 100 µM (inactive) | > 100 µM (inactive) | > 100 µM (inactive) | > 100 µM (inactive) | > 100 µM (inactive) | > 100 µM (inactive) | > 100 µM (inactive) | – | – | > 100 µM (inactive)
15 | Oc1ccc(-c2nc3ccc(Cl)cc3s2)cc1 | 14.2 µM (inactive) | 18.2 µM (inactive) | 16.2 µM (inactive) | 16.9 µM (inactive) | – | 7.41 µM (inactive) | 18.8 µM (inactive) | 19.4 µM (inactive) | 16.5 µM (inactive) | 20.8 µM (inactive) | 22.6 µM (inactive) | 23.4 µM (inactive) | 26.7 µM (inactive) | – | 18.8 µM (inactive) | 5.35 µM (inactive) | 21.4 µM (inactive) | 20.2 µM (inactive) | 20.2 µM (inactive) | –
